Molecules are shown by their SMILES.

This note sets out measurements from patent US8859569B2, “Substituted annellated pyrimidines and use thereof” (Bayer Pharma Aktiengesellschaft, priority 2011, dated 2014).

One assay deals with aorta rings. Nature of the assay: Vessel-relaxing action in vitro (aorta rings, phenylephrine contraction). Conditions: Oryctolagus cuniculus, concentration required to reduce phenylephrine-induced contraction of rabbit aorta rings by 50%. A digest of the protocol:
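Rabbit aortic rings 1.5 mm wide were held under preload in carbogen-gassed Krebs-Henseleit at 37 °C and contracted with cumulative phenylephrine. Test substance was added in rising doses on successive passes, each compared with the preceding control contraction. IC50 is the concentration that halves contraction, with 0.1% DMSO in the bath.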

In assay [1] the target is T1, recombinant guanylate cyclase reporter cell line (Rattus norvegicus, UniProt P19686+P20595).
T1 construct: expressed in transfected cells
T1 sequence (P20595 1-619): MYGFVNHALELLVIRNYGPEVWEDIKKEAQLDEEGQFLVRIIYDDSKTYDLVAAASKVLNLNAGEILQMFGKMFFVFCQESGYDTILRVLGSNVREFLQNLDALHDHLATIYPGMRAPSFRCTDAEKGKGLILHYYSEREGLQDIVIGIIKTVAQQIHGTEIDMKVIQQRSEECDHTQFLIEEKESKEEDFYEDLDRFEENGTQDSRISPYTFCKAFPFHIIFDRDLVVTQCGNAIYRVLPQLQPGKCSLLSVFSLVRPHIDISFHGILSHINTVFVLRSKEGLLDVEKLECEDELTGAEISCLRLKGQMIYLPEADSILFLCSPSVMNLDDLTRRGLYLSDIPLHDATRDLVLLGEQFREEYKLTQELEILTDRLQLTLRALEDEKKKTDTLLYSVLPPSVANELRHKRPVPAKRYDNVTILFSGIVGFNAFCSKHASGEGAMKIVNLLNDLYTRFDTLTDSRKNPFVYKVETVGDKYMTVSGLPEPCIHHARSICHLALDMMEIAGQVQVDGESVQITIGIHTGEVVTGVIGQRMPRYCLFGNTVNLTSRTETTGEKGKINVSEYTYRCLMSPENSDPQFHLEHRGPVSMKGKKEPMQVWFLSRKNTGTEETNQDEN
T1 sequence (P19686 1-690): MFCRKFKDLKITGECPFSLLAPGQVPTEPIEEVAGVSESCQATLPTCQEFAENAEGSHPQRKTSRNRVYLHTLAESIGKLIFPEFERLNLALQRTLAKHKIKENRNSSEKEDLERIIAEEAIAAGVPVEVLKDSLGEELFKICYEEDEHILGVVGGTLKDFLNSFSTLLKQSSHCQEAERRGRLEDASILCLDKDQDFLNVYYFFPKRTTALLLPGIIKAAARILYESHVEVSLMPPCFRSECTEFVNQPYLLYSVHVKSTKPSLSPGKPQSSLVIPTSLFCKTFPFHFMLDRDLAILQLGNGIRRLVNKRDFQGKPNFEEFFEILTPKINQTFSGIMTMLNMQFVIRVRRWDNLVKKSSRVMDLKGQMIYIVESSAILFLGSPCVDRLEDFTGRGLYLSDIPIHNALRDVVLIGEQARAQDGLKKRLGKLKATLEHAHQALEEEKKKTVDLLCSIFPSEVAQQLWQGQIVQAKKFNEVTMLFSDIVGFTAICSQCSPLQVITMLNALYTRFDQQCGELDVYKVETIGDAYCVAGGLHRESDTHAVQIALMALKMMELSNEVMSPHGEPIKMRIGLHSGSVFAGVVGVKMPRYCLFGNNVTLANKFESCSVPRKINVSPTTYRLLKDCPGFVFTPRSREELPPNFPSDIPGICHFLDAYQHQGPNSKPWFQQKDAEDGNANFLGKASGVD
The assay is described as follows: Action on recombinant guanylate cyclase reporter cell line. It is filed as cell-based. On the procedure: B-2. Action on Recombinant Guanylate Cyclase Reporter Cell Line
The cellular action of the compounds according to the invention is determined on a recombinant guanylate cyclase reporter cell line, as described in F. Wunder et al., Anal. Biochem. 339, 104-112 (2005).

The target in assay [2] is T2, human phosphodiesterase 5 (PDE-5) (Homo sapiens, UniProt O76074).
T2 construct: PDE-5 preparations are obtained from human platelets by lysis; from tissue; host or cells: human platelets
The assay is described as follows: Inhibition of human phosphodiesterase 5 (PDE-5), SPA assay. It is filed as biochemical. Conditions: PDE-5 preparation from human platelets, [8-3H]cGMP substrate. The method, boiled down: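 PDE-5 partially purified from human platelets by Mono Q chromatography, diluted so under 70% of [8-3H]cGMP (0.025 μCi) converted. Compounds at 4 μM to 0.0018 μM final, Tris-HCl pH 7.5 with MgCl2, 60 min at room temperature. Yttrium SPA beads stop reaction; IC50 from concentration–inhibition plots.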

One may read the IC50 as the concentration that gives 50% inhibition. Consider `CC1(C)C(=O)Nc2nc(-n3nc(Cc4ccccc4F)c4cc(F)ccc43)nc(OCCC(F)(F)F)c21` [Example 34, 2-[5-Fluoro-3-(2-fluorobenzyl)-1H-indazol-1-yl]-5,5-dimethyl-4-(3,3,3-trifluoropropoxy)-5,7-dihydro-6H-pyrrolo[2,3-d]pyrimidin-6-one], for which the 50% inhibitory concentration (IC50) with aorta rings worked out at 6.15 µM; in assay [2], 0.55 µM. Further, the “MEC (minimal effective concentration)” value in assay [1] is 1.0 μm.
Regarding `CC1(C)C(=O)Nc2nc(-n3nc(Cc4ccccc4F)c4ccccc43)nc(NCCC(F)(F)F)c21` [Example 35, 2-[3-(2-Fluorobenzyl)-1H-indazol-1-yl]-5,5-dimethyl-4-[(3,3,3-trifluoropropyl)amino]-5,7-dihydro-6H-pyrrolo[2,3-d]pyrimidin-6-one], the IC50 was > 10 µM with aorta rings and 0.11 µM in assay [2]. Moreover, the “MEC (minimal effective concentration)” value in assay [1] worked out at 0.3 μm.
For the compound `CC1(C)C(=O)Nc2nc(-n3nc(Cc4ccccc4F)c4ccccc43)nc(NCC3CC3)c21` [Example 36], the results for the IC50 (in the assay with aorta rings; in assay [2]) were 5.49 µM and 0.089 µM, respectively. In addition, the “MEC (minimal effective concentration)” value in assay [1] is 0.3 μm.
Take `CC1(C)C(=O)Nc2nc(-n3nc(Cc4ccccc4F)c4cc(F)ccc43)nc(NCCC(F)(F)F)c21` [Example 37]: the results for the IC50 (in the assay with aorta rings; in assay [2]) were 3.87 µM and 0.1 µM, respectively. The “MEC (minimal effective concentration)” value in assay [1] amounted to 0.3 μm.
Regarding `CC1(C)C(=O)Nc2nc(-n3nc(Cc4ccccc4F)c4cc(F)ccc43)nc(NCC3CC3)c21` [Example 38], the IC50 with aorta rings stood at 10 µM; in assay [2] it was 0.041 µM. Further, the “MEC (minimal effective concentration)” value in assay [1] was 0.3 μm.
The like results for `CC1(C)C(=O)Nc2nc(-c3nc(Cc4ccccc4F)c4ncccn34)nc(NCCC(F)(F)F)c21` [Example 39, 2-[8-(2-Fluorobenzyl)imidazo[1,5-a]pyrimidin-6-yl]-5,5-dimethyl-4-[(3,3,3-trifluoropropyl)amino]-5,7-dihydro-6H-pyrrolo[2,3-d]pyrimidin-6-one] were, in that order, 0.618 µM, 0.088 µM and 0.1 μm.
Consider `C[C@@H](Nc1nc(-c2nn(Cc3ccccc3F)c3ncc(F)cc23)nc2c1C(C)(C)C(=O)N2)C1CC1` [Example 88, 4-{[(1R)-1-Cyclopropylethyl]amino}-2-[5-fluoro-1-(2-fluorobenzyl)-1H-pyrazolo[3,4-b]pyridin-3-yl]-5,5-dimethyl-5,7-dihydro-6H-pyrrolo[2,3-d]pyrimidin-6-one], for which the IC50 came to 1.67 µM with aorta rings and 0.15 µM in assay [2]. Also, the “MEC (minimal effective concentration)” value in assay [1] came out at 0.1 μm.
The like results for `C[C@H](Nc1nc(-c2nn(Cc3ccccc3F)c3ncc(F)cc23)nc2c1C(C)(C)C(=O)N2)C1CC1` [Example 89, 4-{[(1S)-1-Cyclopropylethyl]amino}-2-[5-fluoro-1-(2-fluorobenzyl)-1H-pyrazolo[3,4-b]pyridin-3-yl]-5,5-dimethyl-5,7-dihydro-6H-pyrrolo[2,3-d]pyrimidin-6-one] were, in that order, 3.88 µM, 0.082 µM and 0.03 μm.
For the compound `Cc1nc2c(cc1F)c(-c1nc(NCCC(F)(F)F)c3c(n1)NC(=O)C3(C)C)nn2Cc1ccccc1F` [Example 90, 2-[5-Fluoro-1-(2-fluorobenzyl)-6-methyl-1H-pyrazolo[3,4-b]pyridin-3-yl]-5,5-dimethyl-4-[(3,3,3-trifluoropropyl)amino]-5,7-dihydro-6H-pyrrolo[2,3-d]pyrimidin-6-one], the IC50 in the assay on aorta rings stood at 3.07 µM; in assay [2] it was 0.23 µM. The “MEC (minimal effective concentration)” value in assay [1] came to 0.3 μm.
For `CC1(C)C(=O)Nc2nc(-c3nn(Cc4ccccc4F)c4ncccc34)nc(N3CC(C(F)(F)F)CCC3=O)c21` (stereo not drawn) [Example 91, 2-[1-(2-Fluorobenzyl)-1H-pyrazolo[3,4-b]pyridin-3-yl]-5,5-dimethyl-4-[2-oxo-5-(trifluoromethyl)piperidin-1-yl]-5,7-dihydro-6H-pyrrolo[2,3-d]pyrimidin-6-one], the IC50 in the assay with aorta rings was 0.517 µM; in assay [2], 0.6 µM. Also, in assay [1], the “MEC (minimal effective concentration)” value was determined as 0.03 μm.
Turning to `CC1C(=O)NCCN1c1nc(-c2nn(Cc3ccccc3F)c3ncccc23)nc2c1C(C)(C)C(=O)N2` (stereo not drawn) [Example 92, 2-[1-(2-Fluorobenzyl)-1H-pyrazolo[3,4-b]pyridin-3-yl]-5,5-dimethyl-4-(2-methyl-3-oxopiperazin-1-yl)-5,7-dihydro-6H-pyrrolo[2,3-d]pyrimidin-6-one], the figures for the half-maximal inhibitory concentration (IC50) (with aorta rings; in assay [2]) were 0.52 µM and 0.17 µM, respectively. Further, the “MEC (minimal effective concentration)” value in assay [1] is 0.3 μm.
Turning to `CC1(C)C(=O)Nc2nc(-c3nn(Cc4ccccc4F)c4ncccc34)nc(N3CCS(=O)(=O)CC3)c21` [Example 93, 4-(1,1-Dioxidothiomorpholin-4-yl)-2-[1-(2-fluorobenzyl)-1H-pyrazolo[3,4-b]pyridin-3-yl]-5,5-dimethyl-5,7-dihydro-6H-pyrrolo[2,3-d]pyrimidin-6-one], the concentration for half-maximal inhibition (IC50) was found to be 0.984 µM in the assay with aorta rings and 0.12 µM in assay [2]. Moreover, the “MEC (minimal effective concentration)” value in assay [1] worked out at 0.3 μm.
The like results for `CC(=O)NC1CCN(c2nc(-c3nn(Cc4ccccc4F)c4ncccc34)nc3c2C(C)(C)C(=O)N3)C1` (stereo not drawn) [Example 94, N-(1-{2-[1-(2-Fluorobenzyl)-1H-pyrazolo[3,4-b]pyridin-3-yl]-5,5-dimethyl-6-oxo-6,7-dihydro-5H-pyrrolo[2,3-d]pyrimidin-4-yl}pyrrolidin-3-yl)acetamide] were, in that order, 0.277 µM, 0.14 µM and 0.1 μm.
For the compound `CC1(C)C(=O)Nc2nc(-c3nn(Cc4ccccc4F)c4ncccc34)nc(N[C@H]3CC[C@H](O)CC3)c21` [Example 95, 2-[1-(2-Fluorobenzyl)-1H-pyrazolo[3,4-b]pyridin-3-yl]-4-[(trans-4-hydroxycyclohexyl)amino]-5,5-dimethyl-5,7-dihydro-6H-pyrrolo[2,3-d]pyrimidin-6-one], the IC50 in the assay on aorta rings came out at 0.228 µM; in assay [2], 0.004 µM. Also, the “MEC (minimal effective concentration)” value in assay [1] is on record as 0.1 μm.
With `CC1(C)C(=O)Nc2nc(-c3nn(Cc4ccccc4F)c4ncc(F)cc34)nc(NCC3CC3(F)F)c21` (stereo not drawn) [Example 97, 4-{[(2,2-Difluorocyclopropyl)methyl]amino}-2-[5-fluoro-1-(2-fluorobenzyl)-1H-pyrazolo[3,4-b]pyridin-3-yl]-5,5-dimethyl-5,7-dihydro-6H-pyrrolo[2,3-d]pyrimidin-6-one], the half-maximal inhibitory concentration (IC50) was found to be 1.35 µM in the assay on aorta rings and 0.063 µM in assay [2]. Moreover, the “MEC (minimal effective concentration)” value in assay [1] turned out to be 0.1 μm.
Take `CC1(C)C(=O)Nc2nc(-c3nn(Cc4ccccc4F)c4ncc(F)cc34)nc(NCC3(O)CC3)c21` [Example 98, 2-[5-Fluoro-1-(2-fluorobenzyl)-1H-pyrazolo[3,4-b]pyridin-3-yl]-4-{[(1-hydroxycyclopropyl)methyl]amino}-5,5-dimethyl-5,7-dihydro-6H-pyrrolo[2,3-d]pyrimidin-6-one]: the results for the IC50 (in the assay with aorta rings; in assay [2]) were 0.214 µM and 0.004 µM, respectively. Besides, the “MEC (minimal effective concentration)” value in assay [1] was 0.01 μm.
